SMILES strings stand for the structures. Values after ≈ are worked out from the molar mass of the structure shown.

Conditions in one data set: not given
As a reminder, the solubility is the concentration that dissolves in the medium under given conditions. A lower solubility goes with little dissolved substance. `NC(=O)N(CCO)/N=C/c1ccc([N+](=O)[O-])o1` returned a solubility of 2.06 mM (≈ 500 µg/mL).
On the same count and under the same terms, the figure for `CCC(C)C(C)(COC(N)=O)COC(N)=O` (centres undefined) is 4.31 mM (≈ 1000 µg/mL).
The same measure, in the same setting: then `Cc1csc(NS(=O)(=O)c2ccc(N)cc2)n1`, with 7.43 mM (≈ 2000 µg/mL); and `CC(=O)c1ccc(O)c(O)c1O`, with 9.51 mM (≈ 1600 µg/mL).
The same measure, in the same setting: the figure for `CN(Cc1cc(Br)cc(Br)c1N)C1CCCCC1` is 10.6 mM (≈ 4000 µg/mL).
In turn, `COCc1ccc([N+](=O)[O-])o1` registered a solubility of 70 mM (≈ 11000 µg/mL).

Still in this data set, the particulars now being: 25 °C.
In the case of `CO[C@H]1[C@H](O)[C@H](O[C@H]2CC[C@@]3(C=O)[C@H](CC[C@@H]4[C@@H]3CC[C@]3(C)[C@@H](C5=CC(=O)OC5)CC[C@]43O)C2)O[C@@H](C)[C@@H]1O`, the solubility was 0.729 mM (≈ 400 µg/mL).
On the same count and under the same terms, then `CC(=O)Nc1c(I)c(C(=O)N[C@H]2C(O)O[C@H](CO)[C@@H](O)[C@@H]2O)c(I)c(N(C)C(C)=O)c1I` (some centres undefined), with 634 mM (≈ 500000 µg/mL).

The same data set, now with this note: 27 °C.
As to `NC(=S)NC(N)=S`, the solubility worked out at 20 mM (≈ 2700 µg/mL).

The values are drawn from the OPERA property sets (Mansouri et al. 2018).
